Tests used:
[1] = biological target: T1, 5-Lipoxygenase enzyme (10,000 g supernatant from RBL-1 cells) (Rattus norvegicus, UniProt P12527); experiment: RBL-1 5-Lipoxygenase Screen; type: biochemical; conditions: decrease in 5-HETE + 5,12-diHETE formation relative to control, read-out: Per cent inhibition of 5-lipoxygenase at × μM concentration; for inhibition at 20 µM: at 20 μM compound
T1 construct: prepared as a 10,000 g supernatant from RBL-1 cells; endogenous in cells; host or cells: RBL-1 cells (10,000 g supernatant)
T1 sequence (P12527 1-673): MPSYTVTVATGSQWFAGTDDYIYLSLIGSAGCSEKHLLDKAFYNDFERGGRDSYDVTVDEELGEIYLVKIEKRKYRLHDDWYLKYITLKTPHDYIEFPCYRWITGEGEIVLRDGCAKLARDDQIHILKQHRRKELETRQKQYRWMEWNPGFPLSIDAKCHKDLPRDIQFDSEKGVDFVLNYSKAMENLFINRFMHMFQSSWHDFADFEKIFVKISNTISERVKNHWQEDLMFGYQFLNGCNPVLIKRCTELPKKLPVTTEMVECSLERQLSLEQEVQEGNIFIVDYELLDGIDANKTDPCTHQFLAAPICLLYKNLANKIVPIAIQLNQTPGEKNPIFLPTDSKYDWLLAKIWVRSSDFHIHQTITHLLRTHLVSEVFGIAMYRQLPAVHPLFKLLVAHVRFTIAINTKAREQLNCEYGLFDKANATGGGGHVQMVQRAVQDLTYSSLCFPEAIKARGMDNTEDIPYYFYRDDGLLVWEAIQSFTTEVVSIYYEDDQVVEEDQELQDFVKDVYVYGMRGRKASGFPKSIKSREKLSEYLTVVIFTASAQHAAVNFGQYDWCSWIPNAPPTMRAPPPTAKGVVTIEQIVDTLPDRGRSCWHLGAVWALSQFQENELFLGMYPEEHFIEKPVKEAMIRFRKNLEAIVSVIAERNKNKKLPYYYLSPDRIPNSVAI
Experimental: (1) RBL-1 5-Lipoxygenase Screen
5-Lipoxygenase enzyme was prepared as a 10,000 g supernatant from RBL-1 cells by the method of Jakschik (Jakschik, B. A., F. F. Sun, L. M. Lee, and M. M. Steinhoff, 1980, Biochem. Biophys. Res. Comm. 95, 103). The 10,000 g supernatant was diluted with homogenization buffer to the equivalent of 1.5-2.5×10^7 cells. ml.^-1 and made 2 mM with respect to CaCl2. Aliquots of 0.5 ml were then dispensed into tubes, and incubated at 29° C. with 5 ul ethanol or compound in ethanol at the desired concentration for 2 min. Then [1-^14 C] arachidonic acid was added in buffer to give a final concentration of 6.3 uM and 0.2 uCi per incubation, and the reaction continued at 29° C. for 2 min. The reaction was terminated by adding 1 ml of acetone and cooling on ice, 0.5 ml of ice-cold saline and 100 ul of 2N formic acid were added, and the mixture was extracted with 2×2 ml of chloroform. The extract was stored under N2 at -20° C. until analysis by chromatography. Activity was measured as the percentage of total radioactivity found in 5-HETE and 5,12-diHETE, and inhibition calculated as the decrease in formation of the sum of these two species in compound-treated incubates relative to control incubations.

[2] = test system: cyclo-oxygenase (bovine seminal vesicle microsomes); experiment: Cyclo-oxygenase Screen; type: biochemical; conditions: at 50 μM compound; decrease in prostaglandin formation
Experimental: (2) Cyclo-oxygenase Screen
Compounds were preincubated with the incubation constitutents for 5 min at 37° C. before the reaction was started by the addition of the arachidonic acid. The reaction was continued at 37° C. for 2 min, then stopped by placing the incubations on ice and the addition of 1.2 ml 0.2M citric acid. Unmetabolised substrate and prostaglandin products were extracted in ethyl acetate (2×4 ml), the combined extracts washed with 0.8 ml water, and separated by thin-layer chromatography (Kieselgel GF254 plates in ethyl acetate:acetone:glacial acetic acid, 90:10:1, v/v). Recovery was 65-80%. The regions on the thin-layer chromatography plate that chromatographed with authentic arachidonic acid or prostaglandins E2 and F2 α (Rf 's 0.70, 0.28 and 0.16 respectively) were scraped and the radioactivity in each determined by liquid scintillation counting with a correction for quenching being made by the external standard-channels ratio method. Inhibition of cyclo-oxygenase activity was calculated from the decrease in prostaglandin formation. Each compound concentration was tested in triplicate and the 50% inhibitory concentration, if determined, was calculated by linear regression from the inhibitory data at, at least three different compound concentrations.

| Compound | inhibition at 20 µM [1] [%] | Per cent inhibition of cyclo-oxygenase at 50 μM concentration [2] [%] | inhibition at 5 µM ([1]; at 5 μM compound) [%] |
| --- | --- | --- | --- |
| CCCCCCCCCCCC#Cc1cnccc1C=C(C(=O)O)C(=O)O [Example 4, 2-[3-(1-Tridecynyl)-4-pyridyl]methylenepropane-1,3-dioic acid] | 72 | 15 |  |
| CCCCCCCCCCCC#Cc1cnccc1/C=C/C(=O)O [Example 2, 3-[3-(1-Tridecynyl)-4-pyridyl)prop-2-enoic acid] | 30 |  |  |
| CCCCCCCCCCCC#Cc1ccoc1/C=C/C(=O)O [Example 7, 3-[3-(1-Tridecynyl)-2-furanyl]prop-2-enoic acid] |  | 46 | 38 |

Reference: patent US4732901A, “Certain pyridyl, thienyl or furyl propenoic acids or esters having anti-inflammatory anti-allergic properties” (Beecham Group p.l.c., priority 1985, dated 1988)
